Each structure is given as a SMILES string.

In the first data set the target is T1, dopamine D4 receptors in cloned human dopamine receptor subtype 4.2 membranes (Homo sapiens, UniProt P21917, DEL271-302).
T1 sequence (P21917 with tags, fused parts or gaps DEL271-302): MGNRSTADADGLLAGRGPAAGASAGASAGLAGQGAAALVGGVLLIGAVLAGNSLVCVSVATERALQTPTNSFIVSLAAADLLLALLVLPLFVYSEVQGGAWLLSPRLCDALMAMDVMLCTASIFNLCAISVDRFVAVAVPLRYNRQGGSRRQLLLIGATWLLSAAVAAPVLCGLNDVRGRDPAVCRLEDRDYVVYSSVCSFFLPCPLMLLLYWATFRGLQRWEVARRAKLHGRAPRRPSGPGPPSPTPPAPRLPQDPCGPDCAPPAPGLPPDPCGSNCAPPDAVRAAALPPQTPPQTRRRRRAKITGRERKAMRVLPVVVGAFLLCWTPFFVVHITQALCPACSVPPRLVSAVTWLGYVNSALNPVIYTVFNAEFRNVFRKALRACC
The data set is described as follows: 3H-YM-09151-2 binding (affinity for dopamine D4 receptors). The note with it: 3H-YM-09151-2, cloned human D4.2 membranes; * means that the test result is preliminary; read-out: D4-bind. IC50. As to the method: By this method the inhibition by drugs of the binding of the dopamine D4 antagonist ^3H-YM-09151-2 to dopamine D4 receptors in cloned human dopamine receptor subtype 4.2 membranes is determined in vitro. Accordingly, this is a test for affinity for dopamine D4 receptors. The test is performed using a preparation of cloned dopamine D4 cell membranes CRM-016®, Dupharma A/S, Denmark, in accordance with the product specifications.
As to `CC(=O)N1CC(CCN2CC=C(c3c[nH]c4c(Cl)c(Cl)ccc34)CC2)c2ccccc21` (stereo not shown) [Compound 20g, 3-[1-[2-(1-Acetyl-2,3-dihydro-1H-indol-3-yl)ethyl]-1,2,3,6-tetrahydropyridin-4-yl]-6,7-dichloro-1H-indole], the IC50 amounted to 16 nM. The same measure, in the same setting: under `CC(=O)N1CC(CCN2CC=C(c3c[nH]c4cc5c(cc34)OCO5)CC2)c2ccccc21` (stereo not shown) [Compound 20h, 3-[1-[2-(1-Acetyl-2,3-dihydro-1H-indol-3-yl)ethyl]-1,2,3,6-tetrahydropyridin-4-yl]-5,6-methylenedioxy-1H-indole] stands 30 nM. With `CC(C)(C)OC(=O)N1CC(CCN2CC=C(c3c[nH]c4cc(Cl)ccc34)CC2)c2ccccc21` (stereo not shown) [Compound 20i, 3-[1-[2-(1-tert-Butoxycarbonyl-2,3-dihydro-1H-indol-3-yl)ethyl]-1,2,3,6-tetrahydropyridin-4-yl]-6-chloro-1H-indole], the half-maximal inhibitory concentration (IC50) was found to be 2.9 nM.

In the case of `CC(=O)N1CC(CCN2CCN(c3ccc4[nH]ccc4c3)CC2)c2ccccc21` (stereo not shown) [Compound 20j, 5-[4-[2-(1-Acetyl-2,3-dihydro-1H-indol-3-yl)ethyl]piperazin-1-yl]-1H-indole], the 50% inhibitory concentration (IC50) was 6.9 nM. As to `CC(=O)N1CC(CCCN2CC=C(c3c[nH]c4cc(Cl)ccc34)CC2)c2ccccc21` (stereo not shown) [Compound 20k, 3-[1-[3-(1-Acetyl-2,3-dihydro-1H-indol-3-yl)propyl]-1,2,3,6-tetrahydropyridin-4-yl]-6-chloro-1H-indole], the 50% inhibitory concentration (IC50) is 10 nM. With `CC(=O)N1CC(CCN2CC=C(c3c[nH]c4cc(Cl)ccc34)CC2)c2cc(C)ccc21` (stereo not shown) [Compound 20m, 3-[1-[2-(1-Acetyl-5-methyl-2,3-dihydro-1H-indol-3-yl)ethyl]-1,2,3,6-tetrahydropyridin-4-yl]-6-chloro-1H-indole], the half-inhibitory concentration (IC50) was 8.4 nM. For `Clc1ccc2c(C3CCN(CC4Cc5ccccc5C4)CC3)c[nH]c2c1` [Compound 21a, 6-Chloro-3-[1-(indan-2-ylmethyl)piperidin-4yl]-1H-indole], the half-inhibitory concentration (IC50) was 0.48 nM. As to `Clc1cccc2c(C3CCN(CC4Cc5ccccc5C4)CC3)c[nH]c12` [Compound 21c, 7-Chloro-3-[1-(indan-2-ylmethyl)piperidin-4-yl]-1H-indole], the IC50 came to 1.8 nM.

Regarding `c1ccc2c(c1)CC(CCN1CCN(c3cccc4[nH]ccc34)CC1)C2` [Compound 25a, 4-[4-[2-(Indan-2-yl)ethyl]piperazin-1-yl]-1H-indole], the half-inhibitory concentration (IC50) stood at 2.7 nM. For `c1ccc2c(c1)CC(CCN1CCN(c3ccc4[nH]ccc4c3)CC1)C2` [Compound 25b, 5-[4-[2-(Indan-2-yl)ethyl]piperazin-1-yl]-1H-indole], the 50% inhibitory concentration (IC50) amounted to 5.3 nM. On the same count and under the same terms, under `Clc1ccc2c(ccn2C2=CCN(CCC3Cc4ccccc4C3)CC2)c1` [Compound 28a, 5-Chloro-1-[1-[2-(indan-2-yl)ethyl]-1,2,3,6-tetrahydropyridin-4-yl]-1H-indole] stands 160 nM. Consider `C1=C(n2ccc3ccccc32)CCN(CCC2Cc3ccccc3C2)C1` [Compound 28b, 1-[1-[2-(Indan-2-yl)ethyl]-1,2,3,6-tetrahydropyridin-4-yl]-1H-indole], for which the IC50 came to 14 nM. For the compound `Clc1ccc2c(ccn2C2CCN(CCC3Cc4ccccc4C3)CC2)c1` [Compound 29a, 5-Chloro-1-[1-[2-(indan-2-yl)ethyl]piperidin-4-yl]-1H-indole], the IC50 is 6.9 nM. As for `Clc1ccc2c(C3=CCN(CCC4CNc5ccccc54)CC3)c[nH]c2c1` (stereo not shown) [Compound 30a, 6-Chloro-3-[1-[2-(2,3-dihydro-1H-indol-3-yl)ethyl]-1,2,3,6-tetrahydropyridin-4-yl]-1H-indole], the concentration for half-maximal inhibition (IC50) came to 9.9 nM.

Test system in the next data set: not given
Experiment: not given
Conditions: not given
On to `COc1cc2c(cc1OC)CC(CN1CCC(c3c[nH]c4cc(Cl)ccc34)CC1)C2`, for which the melting point lay within 68 to 79 °C. In the case of `CC(=O)Nc1ccc2c(c1)CC(CN1CCC(c3c[nH]c4cc(Cl)ccc34)CC1)C2` (stereo not shown), the melting point is 151 to 152 °C.

(Values after US6352988B2, “Indane or dihydroindole derivatives” (H. Lundbeck A/S, priority 1996, dated 2002).)
